From paper PMC7893122 (Acta Pharmaceutica Sinica. B, 2020)

Tests used:
[1] = biological target: BRD4 (BD1) (Homo sapiens, UniProt O60885); experiment: Homogeneous time-resolved fluorescence binding assay, BRD4; settings: for IC50: IC50 BRD4 (BD1), mean ± SD from three separate experiments; for fold less potent than compound 2 against BRD4: ratio of IC50 values
[2] = test system: HH signaling pathway (GLI-responsive firefly luciferase reporter); experiment: Dual luciferase reporter assay; assay type: cell-based; settings: read-out: IC50 GLI-luc reporter

Row | Structure (SMILES) | IC50 [1] [nM] | IC50 [2] [nM] | fold less potent than compound 2 against BRD4 [1] [fold]
1 | COc1nnc2ccc(N3CCC(c4ccc(OCCN5CCN(C)C(=O)[C@H]5C)cc4)CC3)nn12 [AZD5153 (4), (3R)-4-[2-[4-[1-(3-methoxy-[1,2,4]triazolo[4,3-b]pyridazin-6-yl)-4-piperidyl]phenoxy]ethyl]-1,3-dimethyl-piperazin-2-one, reference compound] | 18.2 ± 2.7 | 32.1 ± 7.71 | –
2 | Cc1nnn(C)c1-c1cnc2c3ccc(C(C)(C)O)cc3n([C@H](c3ccccc3)C3CCOCC3)c2c1 [BMS-986158 (1), reference compound] | < 0.16 | 0.15 ± 0.05 | –
3 | CCOC(=O)Nc1cc(-c2cc(NS(=O)(=O)CC)ccc2Oc2ccc(F)cc2F)cn(C)c1=O [Compound 5] | 27.6 ± 5.7 | 157 ± 1.3 | 8
4 | CCS(=O)(=O)Nc1ccc(Oc2ccc(F)cc2F)c(-c2cc(NC(=O)OCCOC)c(=O)n(C)c2)c1 [Compound 6] | > 100 | > 100 | –
5 | CCCC(=O)Nc1cc(-c2cc(NS(=O)(=O)CC)ccc2Oc2ccc(F)cc2F)cn(C)c1=O [Compound 7] | > 100 | > 100 | –
6 | CCS(=O)(=O)Nc1ccc(Oc2ccc(F)cc2F)c(-c2cc(NS(=O)(=O)CC)c(=O)n(C)c2)c1 [Compound 8] | 42.8 ± 9.6 | > 100 | –
7 | CCS(=O)(=O)Nc1ccc(Oc2ccc(F)cc2F)c(-c2cc(Nc3ncc[nH]3)c(=O)n(C)c2)c1 [Compound 9] | 47.6 ± 2.9 | > 100 | –
8 | CCS(=O)(=O)Nc1ccc(Oc2ccc(F)cc2F)c(-c2cc(Nc3ccccn3)c(=O)n(C)c2)c1 [Compound 10] | > 100 | > 100 | –
9 | CCS(=O)(=O)Nc1ccc(Oc2ccc(F)cc2F)c(-c2cc(Nc3ccncn3)c(=O)n(C)c2)c1 [Compound 11] | > 100 | > 100 | –
10 | Cn1cc(-c2cc(N3CCC(CO)S3(=O)=O)ccc2Oc2ccc(F)cc2F)c2cc[nH]c2c1=O (centres unmarked) [Compound 12] | 0.25 ± 0.05 | 3.29 ± 0.14 | –
11 | Cn1cc(-c2cc(N3CCCC(CO)S3(=O)=O)ccc2Oc2ccc(F)cc2F)c2cc[nH]c2c1=O (centres unmarked) [Compound 13] | 0.6 ± 0.07 | 20.5 ± 7.74 | –
12 | CN(C)CCN1CCCN(c2ccc(Oc3ccc(F)cc3F)c(-c3cn(C)c(=O)c4[nH]ccc34)c2)S1(=O)=O [Compound 18] | 1.52 ± 0.72 | 56.1 ± 8.25 | –
13 | Cn1cc(-c2cc(N3CCCN(CCN4CCOCC4)S3(=O)=O)ccc2Oc2ccc(F)cc2F)c2cc[nH]c2c1=O [Compound 19] | 1.47 ± 0.03 | 17.7 ± 11 | –
14 | CN(CCO)CCN1CCCN(c2ccc(Oc3ccc(F)cc3F)c(-c3cn(C)c(=O)c4[nH]ccc34)c2)S1(=O)=O [Compound 20] | 1.01 ± 0.34 | 42.8 ± 30.7 | –
15 | Cn1cc(-c2cc(N3CCCN(CCN4CCC(CO)C4)S3(=O)=O)ccc2Oc2ccc(F)cc2F)c2cc[nH]c2c1=O (centres unmarked) [Compound 22] | – | > 100 | –
16 | Cn1cc(-c2cc(N3CCCN(CC4(CO)COC4)S3(=O)=O)ccc2Oc2ccc(F)cc2F)c2cc[nH]c2c1=O [Compound 23] | 0.58 ± 0.1 | 45.8 ± 19.2 | –
17 | Cn1cc(-c2cc(N3CCCS3(=O)=O)ccc2Oc2ccc(F)cc2F)c2cc(C(=O)O)[nH]c2c1=O [Compound 26] | 21 ± 11 | > 100 | > 4
18 | Cn1cc(-c2cc(N3CCCCS3(=O)=O)ccc2Oc2ccc(F)cc2F)c2cc(C(=O)O)[nH]c2c1=O [Compound 27] | 14.3 ± 4.52 | > 100 | > 4
19 | Cn1cc(-c2cc(N3CCCCS3(=O)=O)ccc2Oc2ccc(F)cc2F)c2cc(C(N)=O)[nH]c2c1=O [Compound 29] | 0.09 ± 0.08 | 2.46 ± 0.3 | –
20 | CN1CCN(CCCNC(=O)c2cc3c(-c4cc(N5CCCS5(=O)=O)ccc4Oc4ccc(F)cc4F)cn(C)c(=O)c3[nH]2)CC1 [Compound 32] | 0.75 ± 0.07 | > 100 | –
21 | Cc1sc2c(c1C)C(c1ccc(Cl)cc1)=N[C@@H](CC(=O)Nc1ccc(O)cc1)c1nnc(C)n1-2 [OTX-015, reference compound] | – | 0.64 ± 0.02 | –
22 | Cc1noc(C)c1-c1cnc2c(-c3ccc(C(=O)O)cc3)cn([C@@H](C)c3ccccn3)c2c1 [PLX51107, reference compound] | – | 5.5 ± 1.3 | –
